{"source": "patent US9745631B2", "about": "“Methods for diagnosing and treating oncogenic kras-associated cancer” (Dana-Farber Cancer Institute, Inc., priority 2011, dated 2017)", "type_in_all_cases": "cell-based, mouse", "key": {"iKras p53L/+ PDAC cells": {"test_system": "iKras p53L/+ PDAC cells", "assay": "Clonogenic assay", "details": "shRNA against FASN, FIG. 49", "protocol": "FIG. 38 is a bar graph quantifying the clonogenic activity, expressed as colony number, in iKras p53L/+ cells maintained under high (11 mM) or low (1 mM) glucose, determined for cells infected with shRNA against GFP, RPIA, RPE, or RPIA+RPE; statistical significance is indicated as follows: *: p<0.05; **: p<0.01.\nFIG. 49 is a bar graph quantifying the colony numbers in a clonogenic assay for iKras p53L/+ PDAC cells infected with shRNA against GFP or FASN.\n400 cells were seeded into each well of 6-well plate in duplicate and colonies were stained 7-10 days later with 0.2% crystal violet in 80% methanol."}, "Gfpt1": {"test_system": "Gfpt1", "assay": "Western blot for O-GlcNAc after shRNA knockdown of Gfpt1", "details": "shRNA against Gfpt1, FIG. 25", "protocol": "FIG. 25 is a photograph of a Western blot analysis for O-GlcNAc and Gfpt1 levels in KrasG12D p53L/+ cells infected with shRNA against GFP or Gfpt1. For control samples, MEFs were cultured in the presence or absence of glucose (Glc+, Glc−) for 24 hours. Actin was used as a loading control.\nTissues were fixed in 10% formalin overnight and embedded in paraffin. Immunohistochemical analysis was performed as described (see, Aguirre et al. (2003) Genes Dev 17:3112-3126). The visualization of primary antibodies was performed with horseradish peroxidase system (Vectastain ABC kit, Vector Labs, Inc., Burlingame, Calif.). Images were captured using a Leica DM1400B microsystem and Leica FW4000 version 1.2.1. The primary antibodies used for immunohistochemistry or Western blot were: SMA (NB600-531, Novus Biologicals®, Littleton, Colo.), BrdU (ab1293, Abcam, Cambridge, Mass.), cleaved-Caspase3 (9664, Cell Signaling, Danvers, Mass.), phosphor-Akt (4060, Cell Signaling), phospho-Erk (4376, Cell Signaling), phospho-S6 (4858, Cell Signaling), Actin (sc-1615, Santa Cruz, Santa Cruz, Calif.), Ras (05-516, Millipore, Billerica, Mass.), O-GlcNAc (ab2739, Abcam). Gfpt1 antibody was a kind gift from Immuno-Biological Laboratories Co., Gunma, Japan.\n(§1) Lentiviral shRNA clones targeting Gfpt1, RPIA, RPE, MYC, and FASN and nontargeting control construct shGFP were obtained from the RNAi Consortium at the Dana-Farber/Broad Institute. The clone IDs and nucleic acid sequences for the shRNAs are:\nLentiviruses were produced in 293T cells with packing mix (ViraPower Lentiviral Expression System, Invitrogen, Carlsbad, Calif.) as per manufacturer's instruction. 293T cell supernatant containing the shRNA lentivirus was collected, filtered through 0.45 μm filter, and added to target iKras cells in the presence of 8 μg/ml polybrene.\nTo further substantiate the essentiality of Kras^G12D-mediated control of protein glycosylation, the impact of shRNA-mediated knockdown of Gfpt1 was assessed. […]"}, "FASN": {"test_system": "FASN", "assay": "Relative expression of FASN after shRNA against FASN", "details": "iKras p53L/+ PDAC, FIG. 48", "source_text": "FIG. 48 is a bar graph quantifying the relative expression level of FASN in iKras p53L/+ PDAC infected with shRNA against GFP or FASN.\nas §1\nAs shown in Example 4, above, extinction of iKras led to decreased expression of FASN. Thus, it was next determined whether FASN plays a role in tumorigenesis in PDAC tumor model. iKras p53L/+ PDAC were treated with shRNA against FASN or GFP (control). […] Thus, FASN was determined to play a role in tumorigenic activity of iKras p53L/+ PDAC cells."}, "iKras p53L/+ cells [1]": {"test_system": "iKras p53L/+ cells", "assay": "QPCR of metabolism genes in inhibitor-treated iKras p53L/+ cells", "details": "AZD8330 50 nM, 18 hr, FIG. 41", "protocol": "FIG. 41 is a bar graph showing the relative mRNA expression of the indicated genes in iKras p53L/+ cells treated with MEK inhibitor, AZD8330 (50 nM), BKM120 (150 nM), or Rapamycin (20 nM) for 18 hours. Error bars represent SD of the mean; *p<0.05; **p<0.01.\nTo further dissect the downstream mechanism of Kras^G12D-mediated metabolic reprogramming, specific pharmacological inhibitors were used to examine the impact of effector pathways on tumor metabolism. iKras p53L/+ cells were treated with AZD8330 (50 nM), BKM120 (150 nM), or Rapamycin (20 nM) for 18 hr. In parallel, cells were cultured in the presence or absence of doxy for 24 hr to serve as controls and relative mRNA levels of indicated metabolism genes were measured by QPCR. Some cell lysates were blotted for phospho-Akt, phospho-Erk, phospho-S6, and Myc. […] To gain further insight into the Kras^G12D-mediated transcriptional regulation that facilitates metabolic reprogramming, promoter analysis was performed on differentially expressed genes upon Kras^G12D inactivation."}, "iKras p53L/+ cells [2]": {"test_system": "iKras p53L/+ cells", "assay": "Western blot for phospho-Akt, phospho-Erk, phospho-S6 and Myc in inhibitor-treated cells", "details": "MEK inhibitor treatment (AZD8330 50 nM, 18 hr)", "protocol": "FIG. 42 is a photograph of a Western blot showing expression of phospho-Akt, phospho-Erk, phospho-S6, Myc, and Actin (loading control) in iKras p53L/+ cells treated with AZD8330 (50 nM), BKM120 (150 nM), or Rapamycin (20 nM) for 18 hours. As control, cells were cultured in the presence or absence of doxycycline for 24 hours.\nTissues were fixed in 10% formalin overnight and embedded in paraffin. Immunohistochemical analysis was performed as described (see, Aguirre et al. (2003) Genes Dev 17:3112-3126). The visualization of primary antibodies was performed with horseradish peroxidase system (Vectastain ABC kit, Vector Labs, Inc., Burlingame, Calif.). Images were captured using a Leica DM1400B microsystem and Leica FW4000 version 1.2.1. […]\nTo further dissect the downstream mechanism of Kras^G12D-mediated metabolic reprogramming, specific pharmacological inhibitors were used to examine the impact of effector pathways on tumor metabolism. iKras p53L/+ cells were treated with AZD8330 (50 nM), BKM120 (150 nM), or Rapamycin (20 nM) for 18 hr. In parallel, cells were cultured in the presence or absence of doxy for 24 hr to serve as controls and relative mRNA levels of indicated metabolism genes were measured by QPCR. […]"}, "iKras p53L/+ cells [3]": {"test_system": "iKras p53L/+ cells", "assay": "Steady-state metabolite levels by targeted LC-MS/MS in inhibitor-treated cells", "details": "18 hr", "protocol": "FIG. 43 is a bar graph showing the relative steady-state levels of the indicated metabolites measured by targeted LC-MS/MS, in iKras p53L/+ cells treated with AZD8330 (50 nM), BKM120 (150 nM), or Rapamycin (20 nM) for 18 hours. As control, cells were cultured in the presence or absence of doxycycline for 24 hours. Error bars represent SD of the mean. *p<0.05; **p<0.01.\nTwo independent iKras p53^L/+ tumor lines and one LSL-Kras p53^L/+ line were maintained in basal media in the presence or absence of doxycycline for 24 h. Fresh media was added 2 hours before the experiment. For metabolite collection, media from technical triplicates (in 10 cm dishes at ˜70% confluence) was fully aspirated and 4 mL of 80% (v/v) methanol was added at dry ice temperatures. Cells and the metabolite-containing supernatants were collected into conical tubes. Insoluble material in lysates was centrifuged at 2,000×g for 15 min, and the resulting supernatant was evaporated using a refrigerated speed vac. […] Ten microliters were injected and analyzed using a 5500 QTRAP hybrid triple quadrupole mass spectrometer (AB/SCIEX) coupled to a Prominence UFLC HPLC system (Shimadzu) via selected reaction monitoring (SRM) of a total of 254 endogenous water soluble metabolites for steady-state analyses of samples. […] Approximately 9-12 data points were acquired per detected metabolite. […]"}, "iKras p53L/+ cells [4]": {"test_system": "iKras p53L/+ cells", "assay": "GSH and GSSG levels normalized to cell number", "details": "0.5 mM BSO for 24 hours, FIG. 33", "protocol": "FIG. 33 is a bar graph quantifying the GSH and GSSG levels normalized to cell number in iKras p53L/+ cells or constitutive LSL-KrasG12D p53L/+ control cells (LSL-Kras) maintained in the presence or absence of doxycycline (Dox+/−) or treated with 0.5 mM BSO for 24 hours; statistical significance is indicated as follows: *: p<0.05.\nDoxycycline (Research Product International), BSO (Sigma), Ras activation assay kit (Millipore), G6PD activity assay kit (BioVision), GSH/GSSG-Glo™ assay kit (Promega, Madison, Wis.).\nTo explore this possibility in the context of Kras^G12D-driven PDAC, ^14C1- or ^14C6-labeled glucose was used to measure the production of CO2 from the oxidative PPP (^14C1—CO2) relative to that generated from the glycolysis-TCA cycle route (^14C6—CO2). Consistent with data showing that Kras^G12D de-induction exerts a minimal effect on TCA cycle intermediates (FIG. 18), no obvious change in the release of ^14C6—CO2 was observed upon doxycycline withdrawal (FIG. 32). More importantly, no significant decrease in the release of ^14C1—CO2 was detected (FIG. 32), indicating Kras^G12D extinction was not associated with decreased flux through the oxidative arm of the PPP."}}}
{"compound": "shRNAS: lentiviral shRNA clone targeting FASN, GCTGCGGAAACTTCAGGAAAT (SEQ ID NO: 176)", "values": [{"measurement": "colony formation", "setting": "iKras p53L/+ PDAC cells", "value": "to some extent"}]}
{"compound": "shRNA #3: lentiviral shRNA clone targeting Gfpt1, CAGGGCATTCTCAGTGTGATT (SEQ ID NO: 167)", "values": [{"measurement": "overall O-linked glycosylation (O-GlcNAc)", "setting": "Gfpt1", "value": "reduced"}]}
{"compound": "shRNA #1: lentiviral shRNA clone targeting Gfpt1, CCTGAAACTTAAGACAGTTAA (SEQ ID NO: 165)", "values": [{"measurement": "overall O-linked glycosylation (O-GlcNAc)", "setting": "Gfpt1", "value": "reduced"}]}
{"compound": "shRNA #2: lentiviral shRNA clone targeting Gfpt1, CGTCTCTCTATCCACCGAATT (SEQ ID NO: 166)", "values": [{"measurement": "overall O-linked glycosylation (O-GlcNAc)", "setting": "Gfpt1", "value": "failed to affect glycosylation"}]}
{"compound": "FASN shRNA1: lentiviral shRNA clone targeting FASN, GCTGGTCGTTTCTCCATTAAA (SEQ ID NO: 172)", "values": [{"measurement": "colony formation", "setting": "iKras p53L/+ PDAC cells", "value": "marked decrease"}, {"measurement": "FASN expression", "setting": "FASN", "value": "marked decrease"}]}
{"compound": "Cc1cc(C(=O)NOCCO)c(Nc2ccc(I)cc2F)n(C)c1=O", "note": "[AZD8330]", "values": [{"measurement": "expression of glycolytic genes (Glut1, Hk1, Eno1, Ldha), HBP gene (Gfpt1) and nonoxidative PPP gene (Rpia), relative mRNA", "setting": "iKras p53L/+ cells [1]", "value": "significantly decreased"}, {"measurement": "Myc protein level", "setting": "iKras p53L/+ cells [2]", "value": "decreased"}, {"measurement": "metabolite changes in the glycolysis, HBP and nonoxidative PPP pathways", "setting": "iKras p53L/+ cells [3]; AZD8330 50 nM, FIG. 43", "value": "recapitulated the Kras^G12D inactivation induced metabolite changes"}]}
{"compound": "shRNA4: lentiviral shRNA clone targeting FASN, CGTCTATACCACTGCTTACTA (SEQ ID NO: 175)", "values": [{"measurement": "colony formation", "setting": "iKras p53L/+ PDAC cells", "value": "marked decrease"}, {"measurement": "FASN expression", "setting": "FASN", "value": "marked decrease"}]}
{"compound": "Nc1cc(C(F)(F)F)c(-c2cc(N3CCOCC3)nc(N3CCOCC3)n2)cn1", "note": "[BKM120]", "values": [{"measurement": "impact on iKras-directed tumor metabolism", "setting": "iKras p53L/+ cells [3]; BKM120 150 nM, FIGS. 41, 42 and 43", "value": "did not exhibit a significant impact"}]}
{"compound": "CCCCS(=N)(=O)CCC(N)C(=O)O", "note": "(stereo not shown) [BSO, buthionine sulfoximine]", "values": [{"measurement": "ratio of GSH/GSSG", "setting": "iKras p53L/+ cells [4]", "value": "dramatically reduced"}]}
